Columns and labels:
Format in all cases: physicochemical
[1] = Gelation test: gelator effectiveness (Geff) and minimal gelation concentration in solvents and solvent mixtures; design: key to Gelator effectiveness (Geff): sol.: soluble; ins.: insoluble; cr.: crystallization; [A]: gel/sol mixture; conditions: for Gelator effectiveness (Geff): Table 1
Description: Gelation observed for selected gelator–solvent pairs is expressed by gelator effectiveness (Geff, mL) corresponding to the maximal volume of solvent that could be immobilized by 10 mg of the gelator (Table 1). […] However, 3a and 5a also gelled small to moderate volumes of EtOH and rac-2-octanol, whilst Leu incorporating 1a formed gels with the more lipophilic solvents, decalin and tetralin. […] Apparently, the retro-peptides incorporating aliphatic and aromatic amino acids are less versatile gelators compared to retro-peptides containing […] amino acid fragments. The latter points to the importance of intermolecular lipophilic interactions for the stabilization of gel assemblies being stronger in the case of identical amino acids either lipophilic or aromatic, and weaker for mixed aromatic-lipophilic amino acid fragments present in the gelator molecule.

[2] = TEM of gel networks (PWK negative staining), fiber diameters; conditions: water/DMSO gel
From the text: TEM images of diastereomeric (S,S)-1a and (S,R)-1a water/DMSO gels (Figure 2 and Figure 3) show highly distinct morphology of gel networks. In the first gel rather straight fibers and fiber bundles with diameters in the range of 40–100 nm could be observed. […] As observed earlier for other gel systems, gelator effectiveness Geff depends not only solubility but also depends on the thickness of fibers constituting the network. […] The TEM observed thicknesses of gel aggregates existing in water/DMSO and toluene gels could be also correlated with gelator effectiveness (Geff, mL, see Table 1 and Table 2). It appears that (S,R)-1b (Geff 19.5 mL, water/DMSO gel) organized in thinner fibers is more than twice effective a gelator than its diasteroisomer (S,S)-1a (Geff 8.0 mL, water/DMSO gel) which forms thicker fiber bundles. In the toluene gel, (S,R)-1b organizes into wide and short tapes with low networking capacity which is reflected in a very low (Geff 0.15 mL) gelator effectiveness. page 11: TEM and SEM investigations: transmission electron micrographs were taken on an EM 10 A Zeiss or FEI Morgagni 268D transmission electron microscope. A small amount of sample was placed on carbon-coated grid (copper, 100 mesh). The sample was negatively stained with PWK (dipotassium phosphotungstate). […]

[3] = Gelation test: gelator effectiveness (Geff) and minimal gelation concentration in solvents and solvent mixtures

## CC(C)C[C@H](NC(=O)[C@H](CC(C)C)NC(=O)C(=O)N[C@@H](CC(C)C)C(=O)N[C@@H](CC(C)C)C(=O)O)C(=O)O [(S,S)-1a, (S,S)-bis(LeuLeu)]
[1]; max. volume immobilized by 10 mg gelator, CH2Cl2
  Gelator effectiveness (Geff): ins.
[1]; max. volume immobilized by 10 mg gelator, CH3CN
  Gelator effectiveness (Geff): cr.
[1]; max. volume immobilized by 10 mg gelator, EtOH
  Gelator effectiveness (Geff): sol.
[1]; max. volume immobilized by 10 mg gelator, H2O/DMF mixture, given as volume + volume
  Gelator effectiveness (Geff): 5.84+3.25 mL
[1]; max. volume immobilized by 10 mg gelator, H2O/DMSO mixture, given as volume + volume
  Gelator effectiveness (Geff): 5.09+2.98 mL
[1]; max. volume immobilized by 10 mg gelator, THF
  Gelator effectiveness (Geff): sol.
[1]; max. volume immobilized by 10 mg gelator, decalin
  Gelator effectiveness (Geff): 0.2 mL
[1]; max. volume immobilized by 10 mg gelator, p-xylene
  Gelator effectiveness (Geff): ins.
[1]; max. volume immobilized by 10 mg gelator, tetralin
  Gelator effectiveness (Geff): 1.8 mL
[1]; max. volume immobilized by 10 mg gelator, toluene
  Gelator effectiveness (Geff): cr.
[1]; max. volume immobilized by 10 mg gelator, ±2-octanol
  Gelator effectiveness (Geff): ins.
[1]; maximal volume of solvent immobilized by 10 mg of gelator, solvent H2O
  Gelator effectiveness (Geff): ins.
[1]; water/DMSO gel, total of both solvent volumes, 10 mg gelator
  Geff, total volume: 8.0 mL
[1]; water/DMSO or DMF mixtures
  times more effective in gelation than 3a and 5a: more than 2 times
[2]
  fiber / fiber bundle diameter: 40–100 nm
[3]
  solubility in water: insoluble

— publication PMC2981816, “Oxalyl retro-peptide gelators. Synthesis, gelation properties and stereochemical effects” (Beilstein Journal of Organic Chemistry, 2010)
